Molecules are shown by their SMILES. Some results are limits rather than exact numbers.

The assay concerns the target T1, LPA1 (Homo sapiens, UniProt Q92633).
T1 construct: ProLink (β-galactosidase enzyme-donor fragment); host or cells: CHO-K1 (PathHunter EDG2 β-Arrestin cell line)
In words: LPA1 calcium flux assay (LPA1 functional antagonist assay). Format: cell-based. Conditions: PathHunter CHO-K1 EDG2 β-Arrestin cells, calcium indicator dye, stimulated with EC80 concentration of LPA, FLIPR. The procedure:
The effectiveness of compounds of the present invention as LPA1 inhibitors can be determined in an LPA1 functional antagonist assay as follows.
PathHunter® CHO-K1 EDG2 β-Arrestin Cell Line (Eurofins DiscoverX Corporation, Cat #93-0644C2) were plated overnight (11,500 cells/well) in poly-D-lysine coated 384-well microplates (Corning, Cat #356697) in AssayComplete™ Cell Plating 35 Reagent (Eurofins DiscoverX Corporation, Cat #93-0563R35). Following overnight culture, cells were loaded with calcium indicator dye from the HitHunter Calcium No WashPLUS Assay kit (Eurofins DiscoverX Corporation, Cat #93-0091) for 45 minutes at 37° C. Test compounds solubilized in DMSO (Sigma, Cat #276855) on 384-well polypropylene microplates (Greiner bio-one, Cat #781280) were then diluted to intermediate concentration with assay buffer [1×HBSS calcium/magnesium (Corning, Cat #21-023-CM) and 20 mM HEPES (Corning, Cat #25-060-Cl)] before addition to cells by Agilent Velocity 11 with a final concentration of 0.4% DMSO. After compound addition, assay plates were equilibrated to room temperature for 30 minutes. Cells were then stimulated by addition of EC80 concentration of LPA (Cat #, 10010093) in assay buffer containing [1×HBSS calcium/magnesium (Corning, Cat #21-023-CM), 20 mM HEPES (Corning, Cat #25-060-Cl), and 0.1% BSA (Sigma, Cat #A8806)] using Molecular Devices FLIPR Tetra PLUS®. IC50 values were determined by Chemical and Biological Information System from ChemInnovation Software, Inc.
The compounds of this invention were tested for their activity to inhibit LPA1 as determined in an LPA1 functional antagonist assay as described herein.
For orientation: A change in cytosolic calcium serves as a functional read-out for many receptors and channels.

T1 sequence (Q92633 whole entry, the tested form may be a part): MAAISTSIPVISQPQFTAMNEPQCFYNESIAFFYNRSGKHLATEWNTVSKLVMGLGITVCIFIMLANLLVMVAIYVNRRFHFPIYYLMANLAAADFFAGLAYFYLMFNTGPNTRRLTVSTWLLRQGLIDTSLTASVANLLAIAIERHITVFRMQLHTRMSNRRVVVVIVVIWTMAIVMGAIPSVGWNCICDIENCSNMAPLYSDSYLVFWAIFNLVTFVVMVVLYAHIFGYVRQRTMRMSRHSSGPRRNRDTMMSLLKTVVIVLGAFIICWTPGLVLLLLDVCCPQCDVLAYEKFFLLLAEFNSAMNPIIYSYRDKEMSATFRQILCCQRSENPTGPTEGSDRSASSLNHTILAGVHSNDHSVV

For `CCCN(C)C(=O)OCc1c(-c2ccc([C@@H]3CCC[C@@H](CC(=O)O)O3)c(CC)n2)nnn1C` (single isomer, unassigned) [Example 25, 2-((2S,6S) or (2R,6R)-6-(2-ethyl-6-(1-methyl-5-(((methyl(propyl)carbamoyl)oxy)methyl)-1H-1,2,3-triazol-4-yl)pyridin-3-yl)tetrahydro-2H-pyran-2-yl)acetic acid], the IC50 (usually the concentration that gives 50% inhibition) fell in the range of 0.5 to 5 µM.
With `CCCN(C)C(=O)OCc1c(-c2ccc(N3CC[C@@H](C(CC)C(=O)O)C3)c(CC)n2)nnn1C` (single isomer, unassigned) [Example 19, (S) or (R)-2-((S)-1-(2-ethyl-6-(1-methyl-5-(((methyl(propyl)carbamoyl)oxy)methyl)-1H-1,2,3-triazol-4-yl)pyridin-3-yl)pyrrolidin-3-yl)butanoic acid] the figure was 5 to 10000 µM; with `CCCc1ccc(=O)n(Cc2c(-c3ccc(N4CC[C@@H](C(C)(C)C(=O)O)C4)c(C)n3)nnn2C)c1` [Example 15, (S)-2-methyl-2-(1-(2-methyl-6-(1-methyl-5-((2-oxo-5-propylpyridin-1(2H)-yl)methyl)-1H-1,2,3-triazol-4-yl)pyridin-3-yl)pyrrolidin-3-yl)propanoic acid], < 0.1 µM.
Consider `CCc1nc(-c2nnn(C)c2COc2nccc(C3CCC3)n2)ccc1[C@H]1CCC[C@@H](CC(=O)O)O1` (relative stereo) [Example 21, 2-(rel-(2S,6R)-6-(6-(5-(((4-cyclobutylpyrimidin-2-yl)oxy)methyl)-1-methyl-1H-1,2,3-triazol-4-yl)-2-ethylpyridin-3-yl)tetrahydro-2H-pyran-2-yl)acetic acid], for which the IC50 was < 0.1 µM.
Under `Cc1nc(-c2nnn(C)c2COc2nccc(C3CCC3)n2)ccc1C1COCC(CC(=O)O)C1` (stereo not drawn) [Example 28, 2-{5-[6-(5-{[(4-cyclobutylpyrimidin-2-yl)oxy]methyl}-1-methyl-1H-1,2,3-triazol-4-yl)-2-methylpyridin-3-yl]oxan-3-yl}acetic acid] stands 0.1 to 0.5 µM; under `CCc1nc(-c2nnn(C)c2COc2nccc(C3CCC3)n2)ccc1[C@@H]1CCC[C@@H](CC(=O)O)O1` (single isomer, unassigned) [Example 22, 2-((2S,6S) or (2R,6R)-6-(6-(5-(((4-cyclobutylpyrimidin-2-yl)oxy)methyl)-1-methyl-1H-1,2,3-triazol-4-yl)-2-ethylpyridin-3-yl)tetrahydro-2H-pyran-2-yl)acetic acid], < 0.1 µM.
With `CCc1nc(-c2nnn(C)c2COc2nccc(C3CCC3)n2)ccc1N1CC[C@@H]([C@H](C)C(=O)O)C1` [Example 10] the figure was < 0.1 µM; with `CCCc1ccc(=O)n(Cc2c(-c3ccc(N4CCC(CC(=O)O)C4)c(C)n3)nnn2C)c1` (stereo not drawn) [Example 2, 2-(1-(2-methyl-6-(1-methyl-5-((2-oxo-5-propylpyridin-1(2H)-yl)methyl)-1H-1,2,3-triazol-4-yl)pyridin-3-yl)pyrrolidin-3-yl)acetic acid], 0.5 to 5 µM.
For the molecule `CCCc1ccc(=O)n(Cc2c(-c3ccc(C4COCC(CC(=O)O)C4)c(C)n3)nnn2C)c1` (stereo not drawn) [Example 29], the IC50 lay in the range of 0.5 to 5 µM.

The values are drawn from patent publication US20250230140A1 (Viva Star Biosciences (Suzhou) Co., Ltd., priority 2021, published 2025).
